pIC50: −log10 of the molar value. Where a SMILES comes first, the peptide text is derived from it. Bridges are numbered along the chain shown (N, C = ends). [ ]: non-standard residue; d: D form. The star is where a group is joined. ξ: configuration not given here. Phe(4-COOH) = N[C@@H](Cc1ccc(C(=O)O)cc1)C(=O)O; Bip = N[C@@H](Cc1ccc(-c2ccccc2)cc1)C(=O)O; Phe(3-Me) = Cc1cccc(C[C@H](N)C(=O)O)c1; NMeE = CN[C@@H](CCC(=O)O)C(=O)O; NMeQ = CN[C@@H](CCC(N)=O)C(=O)O; Cha = N[C@@H](CC1CCCCC1)C(=O)O; Cit = NC(=O)NCCC[C@H](N)C(=O)O; Thr(3ξ) = CC(O)[C@H](N)C(=O)O; Carboxymethyl = O=C(O)C*; NMeA = CN[C@@H](C)C(=O)O; Aun = NCCCCCCCCCCC(=O)O; Dab = NCC[C@H](N)C(=O)O; Sar = CNCC(=O)O

In this experiment the target is T1, PD-1/PD-L1 interaction (PE-labeled human PD-L1-Ig binding to Jurkat cell line over-expressing human PD-1) (Homo sapiens, UniProt Q15116).
T1 construct: expressed in transfected cells; host or cells: Jurkat
T1 sequence (Q15116 25-288): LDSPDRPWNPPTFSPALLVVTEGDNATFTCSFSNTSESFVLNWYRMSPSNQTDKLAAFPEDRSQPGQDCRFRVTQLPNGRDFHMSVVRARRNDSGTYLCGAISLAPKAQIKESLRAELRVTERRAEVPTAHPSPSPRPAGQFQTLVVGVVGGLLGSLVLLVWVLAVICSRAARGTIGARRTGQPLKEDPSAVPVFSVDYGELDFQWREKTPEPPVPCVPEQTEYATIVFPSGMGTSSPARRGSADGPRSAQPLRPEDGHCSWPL
Kind of experiment: Jurkat-PD-1 Cell Binding High-Content Screening Assay (CBA). The settings on record: Jurkat-hPD-1 cells, PE-labeled PD-L1-Ig 20 nM final; read-out: Jurkat HPD1 PDL1 IC50. The essentials: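 Jurkat-hPD-1 cells (8×10^3/well) in DMEM with 10% fetal calf serum were preincubated with compound for 2 h at 37 °C. PE-labeled PD-L1-Ig was then added at 20 nM final for 1 h. Cells were fixed in paraformaldehyde with Hoechst 33342, washed and imaged by high-content imaging.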
One may read the pIC50 as the IC50 on a negative log10 scale, so that one unit is a factor of ten. As for `Cc1cccc(C[C@@H]2NC(=O)[C@H](CC(=O)O)NC(=O)[C@H](Cc3ccc(C(=O)O)cc3)NC(=O)[C@H](Cc3ccc(OCC(=O)O)cc3)NC(=O)CSC[C@@H](C(=O)NCCCCCCCCCCC(=O)O)NC(=O)[C@H](CCC(=O)O)NC(=O)[C@H](C(C)C)NC(=O)[C@H](CC3CCCCC3)NC(=O)[C@H](CCN)NC(=O)[C@@H](CC(C)C)NC(=O)[C@H](C)N(C)C(=O)[C@H](Cc3ccc(O)cc3)NC(=O)[C@H](Cc3ccc(-c4ccccc4)cc3)NC(=O)[C@H](CC(C)C)NC2=O)c1` [Example 2254] ({CH2CO}-Y(Carboxymethyl)[Phe(4-COOH)]D[Phe(3-Me)]L[Bip]Y[NMeA][dL][Dab][Cha]VEC[Aun]-OH; thioether N-14), the pIC50 is 6.74. Turning to `Cc1cccc(C[C@@H]2NC(=O)[C@H](CC(=O)O)NC(=O)[C@H](Cc3ccc(OCC(=O)O)cc3)NC(=O)[C@H](Cc3ccc(OCC(=O)O)cc3)NC(=O)CSC[C@@H](C(=O)NCCCCCCCCCCC(=O)O)NC(=O)[C@H](CCC(=O)O)NC(=O)[C@H](C(C)C)NC(=O)[C@H](CC3CCCCC3)NC(=O)[C@H](CCN)NC(=O)[C@@H](CC(C)C)NC(=O)[C@H](CCC(N)=O)N(C)C(=O)[C@H](Cc3ccc(O)cc3)NC(=O)[C@H](Cc3ccc(-c4ccccc4)cc3)NC(=O)[C@H](Cc3ccc(O)cc3)NC2=O)c1` [Example 2255] ({CH2CO}-Y(Carboxymethyl)Y(Carboxymethyl)D[Phe(3-Me)]Y[Bip]Y[NMeQ][dL][Dab][Cha]VEC[Aun]-OH; thioether N-14), the negative logarithm of the IC50 (pIC50) is 7.20. The same measure for `Cc1cccc(C[C@@H]2NC(=O)[C@H](CC(=O)O)NC(=O)[C@H](Cc3ccc(OCC(=O)O)cc3)NC(=O)[C@H](Cc3ccc(OCC(=O)O)cc3)NC(=O)CSC[C@@H](C(=O)NCCCCCCCCCCC(=O)O)NC(=O)[C@H](CCC(=O)O)NC(=O)[C@H](C(C)C)NC(=O)[C@H](CC3CCCCC3)NC(=O)[C@H](CCN)NC(=O)[C@@H](CC(C)C)NC(=O)[C@H](CCC(=O)O)N(C)C(=O)[C@H](Cc3ccc(O)cc3)NC(=O)[C@H](Cc3ccc(-c4ccccc4)cc3)NC(=O)[C@H](Cc3ccc(O)cc3)NC2=O)c1` [Example 2256] ({CH2CO}-Y(Carboxymethyl)Y(Carboxymethyl)D[Phe(3-Me)]Y[Bip]Y[NMeE][dL][Dab][Cha]VEC[Aun]-OH; thioether N-14): 7.01; for `Cc1cccc(C[C@@H]2NC(=O)[C@H](CC(=O)O)NC(=O)[C@H](Cc3cnc[nH]3)NC(=O)[C@H](Cc3ccc(OCC(=O)O)cc3)NC(=O)CSC[C@@H](C(=O)NCCCCCCCCCCC(=O)O)NC(=O)[C@H](CCCNC(N)=O)NC(=O)[C@H](C(C)C)NC(=O)[C@H](CC3CCCCC3)NC(=O)[C@H](CCN)NC(=O)[C@@H](CC(C)C)NC(=O)[C@H](C)N(C)C(=O)[C@H](Cc3ccc(O)cc3)NC(=O)[C@H](Cc3ccc(-c4ccccc4)cc3)NC(=O)[C@H](CCC(N)=O)NC2=O)c1` [Example 2257] ({CH2CO}-Y(Carboxymethyl)HD[Phe(3-Me)]Q[Bip]Y[NMeA][dL][Dab][Cha]V[Cit]C[Aun]-OH; thioether N-14): 6.70. As to `Cc1cccc(C[C@@H]2NC(=O)[C@H](CC(=O)O)NC(=O)[C@H](Cc3cnc[nH]3)NC(=O)[C@H](Cc3ccc(OCC(=O)O)cc3)NC(=O)CSC[C@@H](C(=O)NCCCCCCCCCCC(=O)O)NC(=O)[C@H](CCC(=O)O)NC(=O)[C@H](C(C)C)NC(=O)[C@H](CC3CCCCC3)NC(=O)[C@H](CCN)NC(=O)[C@@H](CC(C)C)NC(=O)[C@H](C)N(C)C(=O)[C@H](Cc3ccc(O)cc3)NC(=O)[C@H](Cc3ccc(-c4ccccc4)cc3)NC(=O)[C@H](CCC(N)=O)NC2=O)c1` [Example 2258] ({CH2CO}-Y(Carboxymethyl)HD[Phe(3-Me)]Q[Bip]Y[NMeA][dL][Dab][Cha]VEC[Aun]-OH; thioether N-14), the pIC50 was 6.12.

Turning to `Cc1cccc(C[C@@H]2NC(=O)[C@H](CC(=O)O)NC(=O)[C@H](Cc3ccc(OCC(=O)O)cc3)NC(=O)[C@H](C(C)O)NC(=O)CSC[C@@H](C(=O)N(C)CC(=O)NCCCCCCCCCCC(=O)O)NC(=O)[C@H](CCCNC(N)=O)NC(=O)[C@H](C(C)C)NC(=O)[C@H](CC3CCCCC3)NC(=O)[C@H](CCN)NC(=O)[C@@H](CC(C)C)NC(=O)[C@H](C)N(C)C(=O)[C@H](C(C)C)NC(=O)[C@H](Cc3ccc(-c4ccccc4)cc3)NC(=O)[C@H](C(C)C)NC2=O)c1` (stereo partly drawn) [Example 2259] ({CH2CO}-[Thr(3ξ)]Y(Carboxymethyl)D[Phe(3-Me)]V[Bip]V[NMeA][dL][Dab][Cha]V[Cit]C[Sar][Aun]-OH; thioether N-14), the pIC50 is 7.94. The same measure for `Cc1cccc(C[C@@H]2NC(=O)[C@H](CC(=O)O)NC(=O)[C@H](Cc3ccc(OCC(=O)O)cc3)NC(=O)[C@H](CCCNC(=N)N)NC(=O)CSC[C@@H](C(=O)N(C)CC(=O)NCCCCCCCCCCC(=O)O)NC(=O)[C@H](CCCNC(N)=O)NC(=O)[C@H](C(C)C)NC(=O)[C@H](CC3CCCCC3)NC(=O)[C@H](CCN)NC(=O)[C@@H](CC(C)C)NC(=O)[C@H](C)N(C)C(=O)[C@H](C(C)C)NC(=O)[C@H](Cc3ccc(-c4ccccc4)cc3)NC(=O)[C@H](C(C)C)NC2=O)c1` [Example 2260] ({CH2CO}-RY(Carboxymethyl)D[Phe(3-Me)]V[Bip]V[NMeA][dL][Dab][Cha]V[Cit]C[Sar][Aun]-OH; thioether N-14): 7.55; for `Cc1cccc(C[C@@H]2NC(=O)[C@H](CC(=O)O)NC(=O)[C@H](Cc3ccc(OCC(=O)O)cc3)NC(=O)[C@H](CC(N)=O)NC(=O)CSC[C@@H](C(=O)N(C)CC(=O)NCCCCCCCCCCC(=O)O)NC(=O)[C@H](CCCNC(N)=O)NC(=O)[C@H](C(C)C)NC(=O)[C@H](CC3CCCCC3)NC(=O)[C@H](CCN)NC(=O)[C@@H](CC(C)C)NC(=O)[C@H](C)N(C)C(=O)[C@H](C(C)C)NC(=O)[C@H](Cc3ccc(-c4ccccc4)cc3)NC(=O)[C@H](C(C)C)NC2=O)c1` [Example 2261] ({CH2CO}-NY(Carboxymethyl)D[Phe(3-Me)]V[Bip]V[NMeA][dL][Dab][Cha]V[Cit]C[Sar][Aun]-OH; thioether N-14): 7.59. In the case of `Cc1cccc(C[C@@H]2NC(=O)[C@H](CC(=O)O)NC(=O)[C@H](Cc3ccc(OCC(=O)O)cc3)NC(=O)[C@H](C(C)O)NC(=O)CSC[C@@H](C(=O)N(C)CC(=O)NCCCCCCCCCCC(=O)O)NC(=O)[C@H](C(C)O)NC(=O)[C@H](C(C)C)NC(=O)[C@H](CC3CCCCC3)NC(=O)[C@H](CCN)NC(=O)[C@@H](CC(C)C)NC(=O)[C@H](C)N(C)C(=O)[C@H](C(C)C)NC(=O)[C@H](Cc3ccc(-c4ccccc4)cc3)NC(=O)[C@H](Cc3ccc(O)cc3)NC2=O)c1` (stereo partly drawn) [Example 2262] ({CH2CO}-[Thr(3ξ)]Y(Carboxymethyl)D[Phe(3-Me)]Y[Bip]V[NMeA][dL][Dab][Cha]V[Thr(3ξ)]C[Sar][Aun]-OH; thioether N-14), the pIC50 is 6.81. To `Cc1cccc(C[C@@H]2NC(=O)[C@H](CC(=O)O)NC(=O)[C@H](Cc3ccc(OCC(=O)O)cc3)NC(=O)[C@H](C(C)O)NC(=O)CSC[C@@H](C(=O)N(C)CC(=O)NCCCCCCCCCCC(=O)O)NC(=O)[C@H](CCC(=O)O)NC(=O)[C@H](C(C)C)NC(=O)[C@H](CC3CCCCC3)NC(=O)[C@H](CCN)NC(=O)[C@@H](CC(C)C)NC(=O)[C@H](C)N(C)C(=O)[C@H](C(C)C)NC(=O)[C@H](Cc3ccc(-c4ccccc4)cc3)NC(=O)[C@H](Cc3ccc(O)cc3)NC2=O)c1` (stereo partly drawn) [Example 2263] ({CH2CO}-[Thr(3ξ)]Y(Carboxymethyl)D[Phe(3-Me)]Y[Bip]V[NMeA][dL][Dab][Cha]VEC[Sar][Aun]-OH; thioether N-14) belongs 6.48.

The values are drawn from US20260070945A1, “MACROCYCLIC IMMUNOMODULATORS” (Bristol-Myers Squibb Company, priority 2022, published 2026).
